Values joined by “and” are separate entries in the source; they are usually repeats but may differ in a detail not shown here. Identical values can stand only once.
Experiments:
LNCaP cells = assay: PSMA-mediated internalization into LNCaP cells; type: cell-based; conditions: 1 h, 37° C., percentage of reference ligand ([125I]BA)KuE, n=3
Experimental: (§1) Competitive binding studies were determined on LNCaP cells (1.5×10^5 cells in 1 mL/well) after incubation at 4° C. for 1 h, using (((S)-1-carboxy-5-(4-([^125I]iodo)benzamido)pentyl)carbamoyl)-L-glutamic acid ([^125I]BA)KuE; 0.2 nM/well) as reference radioligand (n=3). Internalization studies of the radiolabeled ligands (1.0 nM/well) were performed on LNCaP cells (1.25×10^5 cells in 1 mL/well) at 37° C. for 1 h and accompanied by ([^125I]BA)KuE (0.2 nM/well), as reference. Data were corrected for non-specific binding and normalized to the specific internalization observed for the reference (n=3). A detailed description of the experimental procedures was previously published (Wurzer A, et al. J Nucl Med. 2020; 61: 735-742).

[1] = Lipophilicity, n-octanol/PBS (pH 7.4) distribution; type: physicochemical; conditions: n-octanol/PBS pH 7.4, 177Lu-labeled, n=6
Experimental: Approximately 1 MBq of the ^177Lu-labeled PSMA ligand was dissolved in 1 mL of a 1:1 mixture (v/v) of phosphate-buffered saline (PBS, pH 7.4) and n-octanol (n=6). After vigorous mixing of the suspension for 3 min, the vial was centrifuged at 15000×g for 3 min and 100 μL aliquots of both layers were measured in a γ-counter. Finally, the ratio of the radioactivity detected in the n-octanol sample and the PBS buffer was calculated and expressed as distribution ratio log D7.4.

human serum albumin = target: T1, human serum albumin (Homo sapiens, UniProt P02768); assay: Binding to human serum albumin by albumin mediated size exclusion chromatography (AMSEC); type: in vitro ADME; conditions: size exclusion chromatography with HSA in the mobile phase, 177Lu-labeled
T1 construct: purchased Biowest, Nuaillé, France
T1 sequence (P02768 25-609): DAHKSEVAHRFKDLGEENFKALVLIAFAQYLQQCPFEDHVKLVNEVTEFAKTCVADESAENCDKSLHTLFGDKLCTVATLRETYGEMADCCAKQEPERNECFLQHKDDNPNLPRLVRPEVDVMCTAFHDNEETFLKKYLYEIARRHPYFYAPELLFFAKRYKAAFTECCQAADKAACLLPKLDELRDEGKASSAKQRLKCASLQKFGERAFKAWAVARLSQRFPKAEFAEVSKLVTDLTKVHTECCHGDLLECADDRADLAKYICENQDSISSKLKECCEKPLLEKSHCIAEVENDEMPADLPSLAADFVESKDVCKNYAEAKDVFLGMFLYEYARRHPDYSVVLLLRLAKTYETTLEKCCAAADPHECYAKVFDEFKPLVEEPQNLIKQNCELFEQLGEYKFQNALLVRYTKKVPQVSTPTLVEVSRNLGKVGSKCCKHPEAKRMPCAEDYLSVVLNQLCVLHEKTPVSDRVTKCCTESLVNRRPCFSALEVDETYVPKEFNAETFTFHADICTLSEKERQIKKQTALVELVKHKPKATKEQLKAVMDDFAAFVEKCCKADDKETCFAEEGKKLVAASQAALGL
Experimental: Binding of ^177Lu-labeled ligands to HSA was assessed by albumin mediated size exclusion chromatography (AMSEC). A gel filtration size exclusion column (Superdex 75 Increase 10/300 GL, GE Healthcare, Uppsala, Sweden) was used with HSA buffer at physiological concentration (700 μM, Biowest, Nuaillé, France) as mobile phase (constant flow rate of 0.8 mL/min at room temperature). For calibration purposes, a commercially available set of proteins (GE Healthcare, Buckinghamshire, UK) was used. Under these chromatographic conditions, the retention time of a radioligand (1.0 MBq, 10-20 GBq/μmol) depends on the extent of HSA/ligand interactions and thus, by means of the calibration with the aforementioned set of proteins, can be translated into an AMW (expressed in kDa) as a parameter allowing to quantify the extent of HSA binding. The detection window ranges between 2.3 kDa ([^18F]Fluoride; no HSA interaction) and 70.2 kDa (experimental molecular weight of HSA; maximum HSA interaction).

PSMA = target: T2, PSMA (Homo sapiens, UniProt Q04609); assay: Competitive binding studies on LNCaP cells vs ([125I]BA)KuE (affinity, IC50); conditions: 1 h, 4° C., natLu complexes
T2 construct: endogenous in cells; host or cells: LNCaP cells
T2 sequence (Q04609 whole entry): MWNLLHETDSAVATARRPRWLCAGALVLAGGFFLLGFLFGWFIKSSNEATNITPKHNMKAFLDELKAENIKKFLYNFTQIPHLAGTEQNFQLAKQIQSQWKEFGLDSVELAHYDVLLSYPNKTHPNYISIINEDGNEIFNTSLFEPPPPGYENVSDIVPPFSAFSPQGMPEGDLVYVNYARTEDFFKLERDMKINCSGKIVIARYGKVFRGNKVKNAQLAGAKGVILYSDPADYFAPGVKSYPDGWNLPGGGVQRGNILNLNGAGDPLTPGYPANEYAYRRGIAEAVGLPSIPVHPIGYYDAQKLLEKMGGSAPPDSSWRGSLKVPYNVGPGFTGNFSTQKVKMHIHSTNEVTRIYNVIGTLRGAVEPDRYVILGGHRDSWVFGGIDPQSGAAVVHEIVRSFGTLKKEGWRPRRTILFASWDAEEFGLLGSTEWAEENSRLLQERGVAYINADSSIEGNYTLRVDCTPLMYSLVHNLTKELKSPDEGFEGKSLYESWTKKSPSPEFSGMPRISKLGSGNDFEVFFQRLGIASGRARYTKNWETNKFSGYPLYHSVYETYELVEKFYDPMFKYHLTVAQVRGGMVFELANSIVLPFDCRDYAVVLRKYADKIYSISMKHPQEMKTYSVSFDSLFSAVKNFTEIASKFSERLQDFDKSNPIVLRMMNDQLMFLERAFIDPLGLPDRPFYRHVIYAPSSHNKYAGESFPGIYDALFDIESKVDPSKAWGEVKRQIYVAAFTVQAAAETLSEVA
Experimental: as §1

[2] = system: LNCaP tumor-bearing male CB-17 SCID mice; assay: Ex vivo biodistribution in LNCaP tumor-bearing CB-17 SCID mice; conditions: 24 h p.i.; for Tumor uptake / Activity accumulation tumor: LNCaP tumor; for Tumor-to-organ ratio adrenals / Tumor-to-organ ratio blood / Tumor-to-organ ratio bone / Tumor-to-organ ratio heart / Tumor-to-organ ratio intestine / Tumor-to-organ ratio kidney / Tumor-to-organ ratio liver / Tumor-to-organ ratio lung / Tumor-to-organ ratio muscle / Tumor-to-organ ratio pancreas / Tumor-to-organ ratio parotid gl. / Tumor-to-organ ratio spleen / Tumor-to-organ ratio stomach / Tumor-to-organ ratio submand. gl.: n=5, mean of ratios per mouse; for Activity accumulation adrenals / Activity accumulation blood / Activity accumulation bone / Activity accumulation heart / Activity accumulation intestine / Activity accumulation kidney / Activity accumulation liver / Activity accumulation lung / Activity accumulation muscle / Activity accumulation pancreas / Activity accumulation parotid gl. / Activity accumulation spleen / Activity accumulation stomach / Activity accumulation submand. gl. / Activity accumulation tumor: n=5, mean, complete dataset
Experimental: All animal experiments were conducted in accordance with general animal welfare regulations in Germany (German animal protection act, as amended on 18 May 2018, Art. 141 G v. 29 Mar. 2017 I 626, approval no. 55.2-1-54-2532-71-13) and the institutional guidelines for the care and use of animals. LNCaP tumor xenografts were established in 6-8 weeks old male CB-17 SCID mice as described previously (Wurzer A, et al. J Nucl Med. 2020; 61: 735-742). Biodistribution Studies. The ^177Ludabeled PSMA inhibitors (2-5 MBq; 0.1 nmol) were injected under isoflurane anesthesia into the tail vein of LNCaP tumor-bearing male CB-17 SCID mice that were sacrificed 24 h post injection (p.i.) (n=4-5). Selected organs were removed, weighed, and measured in a counter. All rhPSMA ligands were evaluated in mice during the same time period (Q1/2020), whereas ^177Ludabeled PSMA-617 and PSMA I&T (Wirtz M, et al. EJNMMI Res. 2018; 8: 84) were assessed previously using the identical cell line, mouse model and experimental procedure.

Compound	Internalization [% IBA-KuE] (LNCaP cells)	logD7.4 [1]	MWapp [kDa] (apparent molecular weight, AMW; HSA binding) (human serum albumin)	IC50 (PSMA; n=3)	Tumor uptake [2]	Tumor-to-organ ratio adrenals [2]	Tumor-to-organ ratio blood [2]	Tumor-to-organ ratio bone [2]	Tumor-to-organ ratio heart [2]	Tumor-to-organ ratio intestine [2]	Tumor-to-organ ratio kidney [2]	Tumor-to-organ ratio liver [2]	Tumor-to-organ ratio lung [2]	Tumor-to-organ ratio muscle [2]	Tumor-to-organ ratio pancreas [2]	Tumor-to-organ ratio parotid gl. [2]	Tumor-to-organ ratio spleen [2]	Tumor-to-organ ratio stomach [2]	Tumor-to-organ ratio submand. gl. [2]	Activity accumulation adrenals [2]	also measured
CC(C)(C)[Si](F)(c1ccc(C(=O)NC[C@H](NC(=O)CC[C@H](C(=O)O)N2CCN(CC(=O)[O-])CCN(CC(=O)[O-])CCN(CC(=O)[O-])CC2)C(=O)N[C@H](CCCCNC(=O)CCC(=O)NCCC[C@@H](NC(=O)CC[C@H](NC(=O)N[C@@H](CCC(=O)O)C(=O)O)C(=O)O)C(=O)O)C(=O)O)cc1)C(C)(C)C.[Lu+3] [[^177Lu, ^19F]rhPSMA-7.2]	197.3 ± 15.0 % IBA-KuE	−4.25 ± 0.29	31.7 kDa	2.88 ± 1.06 nM	–	–	–	–	–	–	–	–	–	–	–	–	–	–	–	–	–
O=C([O-])CN1CCN(CC(=O)[O-])CCN(C(CCC(=O)N[C@H](Cc2ccc(O)c(I)c2)C(=O)N[C@H](Cc2ccccc2)C(=O)N[C@H](CCCCNC(=O)CCCCCCC(=O)NCCCC[C@H](NC(=O)N[C@@H](CCC(=O)O)C(=O)O)C(=O)O)C(=O)O)C(=O)O)CCN(CC(=O)[O-])CC1.[Lu+3] (stereo partly drawn) [[^177Lu]PSMA I&T]	145±14 % IBA-KuE and 145.4 ± 13.8 % IBA-KuE	−4.1 ± 0.1	5.3 kDa	4.17 ± 0.78 nM	4.1±1.1 % ID/g	5.62	1288	358.26	366.06	191.31	0.6	155.09	65.08	1964.92	336.33	63.21	9.06	236.69	136.76	1.3590 % ID/g	Tumor-to-organ ratio blood ([2]; listed as [^177Lu] PSMA-I&T): 1288.54; Tumor-to-organ ratio kidney ([2]; listed as [^177Lu] PSMA-I&T): 0.61; Activity accumulation blood [2]: 0.0061 % ID/g; Activity accumulation bone [2]: 0.0209 % ID/g; Activity accumulation heart [2]: 0.0208 % ID/g; Activity accumulation intestine [2]: 0.0507 % ID/g; Activity accumulation kidney [2]: 15.9±12.0 % ID/g; Activity accumulation liver [2]: 0.0553 % ID/g; Activity accumulation lung [2]: 0.1138 % ID/g; Activity accumulation muscle [2]: 0.0051 % ID/g; Activity accumulation pancreas [2]: 0.0295 % ID/g; Activity accumulation parotid gl. [2]: 0.1346 % ID/g; Activity accumulation spleen [2]: 1.2047 % ID/g; Activity accumulation stomach [2]: 0.0326 % ID/g; Activity accumulation submand. gl. [2]: 0.0581 % ID/g; Activity accumulation tumor [2]: 7.5780 % ID/g; Activity accumulation kidney ([2]; listed as [^177Lu]PSMA-I&T): 15.8527 % ID/g; IC50 (PSMA; n=3, listed as [^natLu]PSMA I&T): 4.2 ± 0.8 nM
CC(C)(C)[Si]([19F])(c1ccc(C(=O)NC[C@@H](NC(=O)CN2CCN(CC(=O)O)CCN(CC(=O)O)CCN(CC(=O)O)CC2)C(=O)N[C@H](CCCCNC(=O)CCC(=O)NCCC[C@@H](NC(=O)CC[C@H](NC(=O)N[C@@H](CCC(=O)O)C(=O)O)C(=O)O)C(=O)O)C(=O)O)cc1)C(C)(C)C [[^177Lu, ^19F]rhPSMA-10.1, metal not drawn]	177.4 ± 14.6 % IBA-KuE	−3.8 and −3.78 ± 0.06	25.1 kDa	2.76 ± 0.51 nM	9.8±0.3 % ID/g	137.57	9117	389.88	641.37	250.87	5.5	72.52	404.28	2431.90	797.72	206.18	63.66	351.52	344.45	0.0983 % ID/g	Kidney uptake as percentage of that of [177Lu, 19F]rhPSMA-7.3 [2]: 20%; Tumor-to-blood ratio, times higher compared to [177Lu, 19F]rhPSMA-7.3 [2]: 2 times; Tumor-to-blood ratio, times higher compared to [177Lu]PSMA-617 [2]: 7 times; Tumor-to-organ ratio blood ([2]; listed as [^177Lu]rhPSMA-10.1): 9117.20; Tumor-to-organ ratio kidney ([2]; listed as [^177Lu]rhPSMA-10.1): 5.52; Activity accumulation blood [2]: 0.0019 % ID/g; Activity accumulation bone [2]: 0.0298 % ID/g; Activity accumulation heart [2]: 0.0192 % ID/g; Activity accumulation intestine [2]: 0.0642 % ID/g; Activity accumulation liver [2]: 0.1631 % ID/g; Activity accumulation lung [2]: 0.0346 % ID/g; Activity accumulation muscle [2]: 0.0053 % ID/g; Activity accumulation pancreas [2]: 0.0155 % ID/g; Activity accumulation parotid gl. [2]: 0.0551 % ID/g; Activity accumulation spleen [2]: 0.1828 % ID/g; Activity accumulation stomach [2]: 0.0388 % ID/g; Activity accumulation submand. gl. [2]: 0.0338 % ID/g; Activity accumulation tumor [2]: 11.5563 % ID/g; Activity accumulation kidney ([2]; listed as [^177Lu]rhPSMA-10.1): 2.4219 % ID/g

Reference: patent US20240066155A1, “DUAL MODE RADIOTRACER AND -THERAPEUTICS” (priority 2021, published 2024)
